Values of other authors as cited in US7300792B2, “Lux expression in eukaryotic cells” (University of Tennessee Research Foundation, priority 2002, dated 2007).

Test system: lower eukaryotes
Settings: lower eukaryotes (yeast)

CCCCCCCCCC=O [n-decylaldehyde]
Toxicity: toxic to lower eukaryotes
